Values joined by “and” are separate entries in the source; they are usually repeats but may differ in a detail not shown here. Identical values can stand only once. Like-named read-outs stand apart in the source and are kept apart here.
Columns and labels:
récepteurs β1-cardiaques = target: T1, récepteurs β1-cardiaques (Cavia porcellus, UniProt H0W3H1); assay: Antagonism of the effects of isoprenaline on the isolated guinea-pig atrium (method of Giudicelli, Schmitt and Boissier); parameters: species or system cobaye; settings: for Effet inotrope + de l'isoprénaline Concentration active Après produit: isoprenaline concentration giving a 10 mm increase of the trace amplitude; for Effet chronotrope + de l'isoprénaline Concentration active Après produit: isoprenaline concentration giving an increase of 30 beats per min
T1 construct: sur l'oreillette isolée de cobaye; from tissue; host or cells: isolated guinea-pig atrium
Description: L'activité 8-lytique a été recherchée au niveau des récepteurs β1-cardiaques en déterminant l'antagonisme des effets de l'isoprénaline sur l'oreillette isolée de cobaye, selon la méthode de Giudicelli, Schmitt et Boissier (J. Pharmacol. Exper. Thérapeut., 1969, 168, 116). […]
Afin de ne pas surcharger inutilement les tableaux suivants, seuls les résultats correspondant au composé n° 2 sont indiqués.

[1] = target: T2, récepteurs S2-bronchiques (Cavia porcellus, UniProt Q8K4Z4); assay: Inhibition of the protection given by isoprenaline against serotonin bronchospasm (Konzett and Roessler, modified by Halpern); type: in vivo, cobaye; settings: guinea pig, i.v. 250 µg/kg; for inhibition at 0.25 mg/kg: iv, number in parentheses
T2 construct: a été étudiée chez le cobaye, à raison de cinq animaux par essai; from tissue; host or cells: whole guinea pig (bronchi, in vivo)
Description: L'action β2-adrénolytique au niveau bronchique a été étudiée chez le cobaye, à raison de cinq animaux par essai, en recherchant l'inhibition de la protection exercée par l'isoprénaline vis-à-vis du bronchospasme à la sérotonine, selon la méthode de Konzett et Roessler (Arch. Exper. Pathol. Pharmakol., 1940, 195, 71) modifiée par Halpern.
Les composés sont administrés par voie i.v. à la dose de 250 µg/kg.

[2] = dose of product 5.10^-10 mole/cm^3
[3] = dose of product 1.10^-10 mole/cm^3
[4] = dose of product 1.10^-10 mole/cm^3, ratio of active concentrations after and before addition of product

T2 sequence (Q8K4Z4 whole entry): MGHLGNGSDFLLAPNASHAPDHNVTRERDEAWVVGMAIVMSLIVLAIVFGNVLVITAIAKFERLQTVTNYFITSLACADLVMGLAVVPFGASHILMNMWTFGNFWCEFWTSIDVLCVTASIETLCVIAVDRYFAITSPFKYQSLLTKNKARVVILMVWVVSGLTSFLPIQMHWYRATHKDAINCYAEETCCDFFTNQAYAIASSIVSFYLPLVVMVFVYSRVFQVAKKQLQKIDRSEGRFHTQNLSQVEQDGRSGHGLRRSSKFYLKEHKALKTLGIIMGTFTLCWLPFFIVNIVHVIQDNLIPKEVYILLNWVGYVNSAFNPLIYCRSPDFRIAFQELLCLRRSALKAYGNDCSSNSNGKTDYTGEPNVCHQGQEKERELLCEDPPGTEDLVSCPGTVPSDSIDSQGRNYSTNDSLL
T1 sequence (H0W3H1 1-470): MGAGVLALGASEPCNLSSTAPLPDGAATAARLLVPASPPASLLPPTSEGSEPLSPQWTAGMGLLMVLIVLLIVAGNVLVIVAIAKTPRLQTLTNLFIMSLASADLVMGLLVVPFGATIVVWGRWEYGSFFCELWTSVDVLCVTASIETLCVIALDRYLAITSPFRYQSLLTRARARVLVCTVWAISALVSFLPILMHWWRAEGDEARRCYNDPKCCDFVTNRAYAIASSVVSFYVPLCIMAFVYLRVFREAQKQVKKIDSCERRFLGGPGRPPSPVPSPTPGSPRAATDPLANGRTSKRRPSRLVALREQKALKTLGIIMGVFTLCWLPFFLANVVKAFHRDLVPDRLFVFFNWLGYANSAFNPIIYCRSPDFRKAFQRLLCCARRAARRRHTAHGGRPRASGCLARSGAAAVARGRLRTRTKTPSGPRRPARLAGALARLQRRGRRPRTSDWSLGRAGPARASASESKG

| activité β1-stimulante (récepteurs β1-cardiaques; at low concentrations, compared with propranolol, summary of Table II) | Effet inotrope + de l'isoprénaline Concentration active Après produit (récepteurs β1-cardiaques; [3]) | Effet chronotrope + de l'isoprénaline Concentration active Après produit (récepteurs β1-cardiaques; [3]) | Effet chronotrope + de l'isoprénaline Index d'activité (récepteurs β1-cardiaques; [4]) | Effet inotrope + de l'isoprénaline Index d'activité (récepteurs β1-cardiaques; [4]) | antagonisme des effets de l'isoprénaline (effet inotrope + et effet chronotrope +) (récepteurs β1-cardiaques; isolated atrium, single concentration 1.10^-7 g/cm^3, five preparations per product, given as maleate) | Moyenne de l'amplitude Après administration, au bout de 1 min ([1]; 1 min after administration, five animals) | Moyenne de l'amplitude Après administration, au bout de 8 min ([1]; 8 min after administration, five animals) | Moyenne de l'amplitude Après administration, au bout de 16 min ([1]; 16 min after administration, five animals) | Moyenne de l'amplitude Après administration, au bout de 30 min ([1]; 30 min after administration, five animals) | Moyenne de l'amplitude Après administration, au bout de 60 min ([1]; 60 min after administration, five animals) | blocage des récepteurs S2-bronchiques ([1]; compared with propranolol, summary of Table III) | inhibition at 0.25 mg/kg ([1]; 1 min after administration, read-out: pourcentages d'inhibition de l'isoprénaline, 1 min (converted)) | inhibition at 0.25 mg/kg ([1]; 8 min after administration, read-out: pourcentages d'inhibition de l'isoprénaline, 8 min (converted)) | inhibition at 0.25 mg/kg ([1]; 16 min after administration, read-out: pourcentages d'inhibition de l'isoprénaline, 16 min (converted)) | Compound | Effet inotrope + de l'isoprénaline Concentration active Après produit (récepteurs β1-cardiaques; [2]) | Effet chronotrope + de l'isoprénaline Concentration active Après produit (récepteurs β1-cardiaques; [2]) |
| --- | --- | --- | --- | --- | --- | --- | --- | --- | --- | --- | --- | --- | --- | --- | --- | --- | --- |
| – | – | – | – | – | – | – | – | – | – | – | – | – | – | – | CC(C)NCC(O)COc1cccc2ccccc12 (stereo not drawn) [propranolol, isopropylamino-1 (naphtyl-1 oxy)-3 propanol-2, reference compound] | 5,8.10^-8 | 1,8.10^-7 |
| proche de celle du propranolol | 7,6.10^-8 | 3,8.10^-8 | 7 | 6,5 | suffisamment efficace | 20,4 ± 1,4 | 3,8 ± 2,4 | 0,6 ± 0,6 | 0 | 0 | très fugace | 82% | 15% | 2% | CC(C)(C)NCC(O)COc1c(C#N)sc2ccccc12 (stereo not drawn) [compound 2] | – | 1,5.10^-7 and 1,8.10^-7 |

Reference: patent EP0020266A1, “Derivatives of cyano-2-hydroxy-3-benzofurane and benzo(b)thiophene, their preparation and their use in therapy” (ANVAR Agence Nationale de Valorisation de la Recherche, priority 1979, dated 1980)
